Measurements as given in patent EP1695704A1, “Derivatives of aryl (or heteroaryl) azolylcarbinols for the treatment of fibromyalgia” (LABORATORIOS DEL DR. ESTEVE, S.A., priority 2005, dated 2006).

Tests used:
Format in all cases: in vivo
[1] = tested on: Unilateral ligature of the sciatic nerve; test: Neuropathic pain, Bennet model, mechanical response thresholds; conditions: rats with sciatic nerve ligature; dose-effect study; Figure 1
From the text: Neuropathic Pain - Dose-effect study of Example 1 Phase I (Bennet model): Unilateral ligature of the sciatic nerve (mechanical response thresholds)
According to the Model described by Bennet (Bennet and Xie, Pain 1988, 33, 87-107) a well established model for neuropathic pain, rats were operated with the following surgical procedure,
(§1) Rats were anaesthesized using Pentobarbital. Then the skin was incised. Following that a sciatic nerve ligature was placed and the incision was closed with silk thread.
(§2) In Sham-operated control animals the identical surgical procedures were followed, but the nerve was not ligatured.

[2] = tested on: Unilateral ligature of the sciatic nerve; test: Neuropathic pain, Bennet model, thermal response thresholds; conditions: rats with sciatic nerve ligature; dose-effect study; Figure 2
From the text: Neuropathic Pain - Dose-effect study of Example 1 Phase I (Bennet model): Unilateral ligature of the sciatic nerve (thermal response thresholds)
According to the Model described by Bennet (Bennet and Xie, Pain 1988, 33, 87-107) a well established model for neuropathic pain, rats were operated with the following surgical procedure:
as §1, §2

[3] = tested on: ptosis by reserpine in mice; test: Depression, Reserpine test; conditions: Mus musculus, po
Method: Depression, Reserpine test
Mice were prepared according to the Model described by C.J.E. Niemegeers "Antagonism of Reserpine-like activity" in "Antidepressants", Ed. by S. Fielding, Futura Publishing Co., New York 1975. Pags 73-98 and Garattini S. et al. "Antagonists of Reserpine-induced eyelid ptosis" Med.Exp. 3 : 315-320 (1960):
The inhibition shown by the compound according to example 1 in ptosis by reserpine in mice was: […]

Mice = test: Depression, Mice tail Suspension; conditions: Mus musculus, po
Method: Depression, Mice tail Suspension
Mice were prepared according to the Model described by
The inhibition shown by the compound according to example 1 was: […]

CN(C)CCOC(c1ccccc1)c1ccnn1C (racemic) [Example 1, (±)-5-{α-[2-(dimethylamino)ethoxy]benzyl}-1-methyl-1H-pirazole]
effect on vocalization threshold using a mechanical stimulus [1]: clear dose-dependent effect
effect on struggle latency in a low temperature thermal response threshold [2]: clear dose-dependent effect
ED50 [3]: 26.2 mg/kg
inhibition at 10 mg/kg ([3]; dose 10 mg/kg p.o.): 21%
inhibition at 20 mg/kg ([3]; dose 20 mg/kg p.o.): 47%
inhibition at 40 mg/kg ([3]; dose 40 mg/kg p.o.): 75%
inhibition at 80 mg/kg ([3]; dose 80 mg/kg p.o.): 75%
inhibition at 160 mg/kg ([3]; dose 160 mg/kg p.o.): 71%
ED50 (Mice): 17 mg/kg
inhibition at 10 mg/kg (Mice; dose 10 mg/kg p.o.): 38%
inhibition at 20 mg/kg (Mice; dose 20 mg/kg p.o.): 54%
inhibition at 40 mg/kg (Mice; dose 40 mg/kg p.o.): 71%
inhibition at 80 mg/kg (Mice; dose 80 mg/kg p.o.): 70%
